We go through seven compounds from patent publication US20230257373A1, “QUORUM SENSING INHIBITORS AND METHODS OF USE” (priority 2020, published 2023).

Assay [1] relates to PluxC-gfp reporter in V. campbellii. Briefly: PluxC-gfp reporter in V. campbellii strains. The conditions noted are these: Vibrio campbellii.
The subject of assay [2] is PluxC-gfp reporter in V. vulnificus. Briefly: PluxC-gfp reporter in V. vulnificus strains. The conditions noted are these: Vibrio vulnificus.
The test system of assay [3] is PluxC-gfp reporter in V. parahaemolyticus. Briefly: PluxC-gfp reporter in V. parahaemolyticus strains. The conditions noted are these: Vibrio parahaemolyticus.
For assay [4], the system named is PluxC-gfp reporter in V. coralliilyticus. Briefly: PluxC-gfp reporter in V. coralliilyticus strains.
The target of assay [5] is T1, V. campbellii LuxR (Vibrio harveyi, UniProt P21308).
T1 construct: expressed in transfected cells; host or cells: E. coli DH10B with pKM699 and reporter pJV064
Briefly: E. coli dual-color bioassay (pKM699 LuxR, pJV064 reporter). The conditions noted are these: for Inhibition of LuxR in the E. coli bioassay (in words): GFP and mCherry reporters. The class given is cell-based. The text has this:
Previously, we developed a bioassay that consists of a dual-color fluorescent reporter plasmid that reports both LuxR activities: the luxCDABE promoter is activated by LuxR and drives expression of gfp, and the VIBHAR_05222 promoter is repressed by LuxR and drives expression of mCherry (van Kessel et al., 2013b) (FIG. 2A). We used this reporter plasmid in an E. coli strain that also contains a plasmid expressing LuxR from its native promoter.
A bioassay was developed to monitor LuxR function that consists of a dual-color reporter plasmid (pJV064) that reports both activities: the luxCDABE promoter is activated by LuxR and drives expression of gfp, and the 05222 promoter is repressed by LuxR and drives expression of mCherry (van Kessel, Ulrich et al. 2013). This reporter plasmid was used in an E. coli strain that also contains a plasmid (pKM699) expressing LuxR from its native promoter. E. coli cultures containing these two plasmids were grown at 30° C. in LB medium with chloramphenicol (10 μg/ml) and tetracycline (10 μg/ml) to select for the two plasmids. Compounds were added to the cultures at a range of concentrations, and the cultures were incubated for 16 hours shaking at 30° C.
The dual-promoter fluorescence reporter assays were performed using E. coli strain DH10B containing two plasmids: 1) plasmid pJV064 containing the PluxC fused to GFP and P05222fused to mCherry to assess LuxR transcriptional regulation, and 2) plasmid pKM699 expressing V. campbellii luxR under control of its native promoter or empty vector pLAFR2.

The test system of a further assay is Vibrio strains. Briefly: luxCDABE reporter across five Vibrio species. To be noted: each Vibrio strain except V. cholerae.
The subject of the next assay is V. vulnificus. Briefly: Growth of V. vulnificus with inhibitor. The class given is cell-based. To be noted: high concentrations. The text has this:
(§1) Many sulfonamide-containing compounds are known to target the folate synthesis pathway in bacteria and inhibit growth (bacteriostatic), and thus these “sulfa drugs” have been used as broad-spectrum antibiotics for decades (Hammoudeh et al., 2013, Roland et al., 1979). […] We also tested the stability of the inhibitors in bacterial cultures and the timing of the inhibitory effect.

In assay [6] the target is T1, V. campbellii LuxR. Briefly: qRT-PCR and western blots in wild-type V. campbellii. It is filed as cell-based. To be noted: for luxC transcripts / 05222 transcripts: qRT-PCR; for luxC transcripts: to levels in a ΔluxR strain; for 05222 transcripts: wild-type cultures; for LuxR protein level: western blot, wild-type V. campbellii. The text has this: The Qstatin-treated regulon overlapped with the SmcR regulon by more than 50%, with similar gene expression fold-changes. […] This is important to note because LuxR and HapR proteins are known to autorepress their own expression. To test the effects of adding inhibitors to V. campbellii LuxR, we added 10A, 10B, and 10C to wild-type V. campbellii and used qRT-PCR and western blots to examine the effects on luxR transcript and protein levels. We also examined the transcript levels for luxC and 05222 genes that are directly activated or repressed by LuxR, respectively.
All PCR reactions were performed using Phusion HF polymerase (NEB). T4 polynucleotide kinase (T4 PNK) used in EMSAs and all other enzymes were purchased from NEB and used according to manufacturer's instructions. Site-directed mutagenesis for construction of plasmids expressing mutant proteins was carried out using the Agilent QuikChange II XL Site-Directed Mutagenesis Kit. All oligonucleotides were purchased from Integrated DNA Technologies (IDT).ALL plasmid constructs were confirmed by DNA sequencing (Eurofins). Cloning details for plasmids are available upon request. Western blot analysis was performed as previously described (van Kessel et al., 2013b), except that new anti-LuxR antibodies were generated through Cocalico against purified LuxR protein. In addition, the western blots were probed with anti-RpoB (Neoclone).
Then cells were induced with 50 μM IPTG and grown under the same conditions until cells reached an OD600 of approximately 1, at which 5 mL of cells were collected by centrifugation and frozen in liquid N2. RNA was extracted using a Trizol/chloroform extraction protocol previously described (Rutherford et al., 2011). Quantitative real-time PCR (qRT-PCR) was performed as previously described (Chaparian et al., 2016). Samples were normalized to the internal standard hfq gene. The ΔΔCT values were used to analyze data from three independent biological replicates. Symbols on graphs represent the mean values and error bars represent the standard deviations. All statistical analysis was performed with functions from GraphPad Prism version 8.

A further assay relates to V. campbellii. Briefly: Growth of V. campbellii with inhibitor. It is filed as cell-based. To be noted: high concentrations.
Source text: as §1

[7] abbreviates: ATCC25920, read-out: Inhibition (IC50) of the PluxC-gfp reporter, Vcamp ATCC 25920.
[8] abbreviates: read-out: Inhibition (IC50) of the PluxC-gfp reporter, Vcamp BB120.
Setting [9] is: read-out: Inhibition (IC50) of the PluxC-gfp reporter, Vcamp HY01.
Setting [10] is: ATCC27562, read-out: Inhibition (IC50) of the PluxC-gfp reporter, Vvul ATCC 27562.
Setting [11] is: read-out: Inhibition (IC50) of the PluxC-gfp reporter, Vvul CMPC6.
[12] abbreviates: read-out: Inhibition (IC50) of the PluxC-gfp reporter, Vvul YJ016.
The mark [13] stands for this setting: read-out: Inhibition (IC50) of the PluxC-gfp reporter, Vpara 12-297/B.
[14] abbreviates: read-out: Inhibition (IC50) of the PluxC-gfp reporter, Vpara D4.
Where [15] appears, read: read-out: Inhibition (IC50) of the PluxC-gfp reporter, Vpara RIMD 2210633.
The mark [16] stands for this setting: read-out: Inhibition (IC50) of the PluxC-gfp reporter, Vcoral OCN 008.
Where [17] appears, read: read-out: Inhibition (IC50) of the PluxC-gfp reporter, Vcoral OCN 014.
Where [18] appears, read: read-out: IC50 in the bioassay (approximate).

Where two headings read alike, the source gives them in different places.

T1 sequence (P21308 whole entry): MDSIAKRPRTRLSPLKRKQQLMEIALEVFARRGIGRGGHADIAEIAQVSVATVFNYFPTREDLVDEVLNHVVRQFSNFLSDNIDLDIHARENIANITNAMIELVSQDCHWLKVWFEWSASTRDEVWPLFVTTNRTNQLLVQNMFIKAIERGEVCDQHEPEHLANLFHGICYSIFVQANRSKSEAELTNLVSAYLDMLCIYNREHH

On to `Cc1ccn(S(=O)(=O)c2ccc(Br)s2)n1` [Compound 8A, 1-((5-bromothiophen-2-yl)sulfonyl)-3-methyl-1H-pyrazole], for which the IC50 in assay [1] (setting [7]) was found to be 0.7 µM; in assay [1] (setting [8]), 3.8 µM; in [1] (setting [9]), 1.2 µM; in assay [2] (setting [10]), 0.4 µM; in [2] (setting [11]), 2.1 µM; in assay [2] (setting [12]), 0.5 µM. The IC50 is 2.1 µM in assay [3] (setting [13]); 2.4 µM in [3] (setting [14]); 2 µM in assay [3] (setting [15]); 4.2 µM in assay [4] (setting [16]); 9.6 µM in assay [4] (setting [17]); 10 to 20 µM at V. campbellii LuxR [5] (setting [18]).

`Cc1ccn(S(=O)(=O)c2ccc(Cl)s2)n1` [Compound 8C, 1-((5-chlorothiophen-2-yl)sulfonyl)-3-methyl-1H-pyrazole]: the IC50 was 1.5 µM in assay [1] (setting [7]); 6.7 µM in assay [1] (setting [8]); 2.7 µM in assay [1] (setting [9]); 0.7 µM in assay [2] (setting [10]); 4.6 µM in assay [2] (setting [11]); 1 µM in assay [2] (setting [12]). For the same compound, the IC50 was 3.3 µM in assay [3] (setting [13]); 4.5 µM in [3] (setting [14]); 3.8 µM in assay [3] (setting [15]); 2.7 µM in assay [4] (setting [16]); 8.4 µM in [4] (setting [17]); 10 to 20 µM on V. campbellii LuxR [5] (setting [18]).

Turning to `O=S(=O)(c1ccc(Br)s1)N1CCCC1` [P0074 H04, 1-((5-bromothiophen-2-yl)sulfonyl)pyrrolidine], the “Inhibition of LuxR in the E. coli bioassay (in words)” value (shortened to “Inhibition of LuxR”) at V. campbellii LuxR [5] is on record as “consistent inhibition”. Moreover, on V. campbellii LuxR [5] (setting [18]), the IC50 is ~35 µM.

On to `Cc1ccn(S(=O)(=O)c2cccs2)n1` [Compound 8B, 3-methyl-1-(thiophen-2-ylsulfonyl)-1H-pyrazole], for which the IC50 in assay [1] (setting [7]) stood at 3.9 µM; in assay [1] (setting [8]), 32.4 µM; in assay [1] (setting [9]), 8.7 µM; in [2] (setting [10]), 1.9 µM; in assay [2] (setting [11]) it was 11.5 µM; in [2] (setting [12]), 3 µM. The IC50 in [3] (setting [13]) was found to be 6.7 µM; in assay [3] (setting [14]) it was 8.4 µM; in assay [3] (setting [15]), 7.3 µM; in [4] (setting [16]) it was 26.1 µM; in assay [4] (setting [17]), 26.8 µM. Also, on V. campbellii LuxR [5], the “Inhibition of LuxR” value is “does not show inhibition”.

On to `FC(F)(F)C1CN(c2nc(-c3ccccc3)cs2)CCO1` (stereo not shown) [P2065 E16, 4-(4-phenylthiazol-2-yl)-2-(trifluoromethyl)morpholine], for which, at V. campbellii LuxR [5], the “Inhibition of LuxR” value is “only a minor inhibition”. The IC50 at V. campbellii LuxR [5] (Table 2, titration, 16 hours, read-out: Inhibition (IC50) of GFP production by LuxR in E. coli bioassay) is 5.3 µM.

Turning to `O=S(=O)(c1ccc(Cl)s1)n1ccc(-c2ccccc2)n1` [Compound 10C, 1-((5-chlorothiophen-2-yl)sulfonyl)-3-phenyl-1H-pyrazole], the IC50 in assay [1] (setting [7]) was 0.09 µM; in assay [1] (setting [8]), 0.71 µM; in assay [1] (setting [9]), 0.16 µM; in assay [2] (setting [10]), 0.00075 µM; in assay [2] (setting [11]), 0.0605 µM; in assay [2] (setting [12]), 0.00546 µM. The IC50 in [3] (setting [13]) is 1.04 µM; in assay [3] (setting [14]), 1.28 µM; in assay [3] (setting [15]), 0.68 µM; in assay [4] (setting [16]), 1.07 µM; in assay [4] (setting [17]) it was 2.42 µM; at V. campbellii LuxR [5] (setting [18]) it was 1 to 2 µM. In the assay on Vibrio strains, the “IC50 values lower than Qstatin” value is reported as ~10 fold. Further, the “Growth rate or growth yield” value in the assay with V. vulnificus and in the assay on V. campbellii was “did not alter growth rate or growth yield” throughout. Also, the luxC transcripts entry at V. campbellii LuxR [6] is given as “significantly decreased”. Also, on V. campbellii LuxR [6], the 05222 transcripts result is on record as “significantly increased”. At V. campbellii LuxR [6], the LuxR protein level entry is reported as “visible increase”. Further, the “Inhibition of LuxR” value on V. campbellii LuxR [5] is on record as “most potent”.

As for `O=S(=O)(c1ccc(Br)s1)n1ccc(-c2ccccc2)n1` [Compound 10A, 1-((5-bromothiophen-2-yl)sulfonyl)-3-phenyl-1H-pyrazole], the IC50 in assay [1] (setting [7]) was 0.05 µM; in assay [1] (setting [8]), 0.58 µM; in assay [1] (setting [9]), 0.4 µM; in [2] (setting [10]) it was 0.00144 µM; in assay [2] (setting [11]) it was 0.0339 µM; in assay [2] (setting [12]), 0.00584 µM. Besides, the IC50 is 1.03 µM in assay [3] (setting [13]); 0.87 µM in assay [3] (setting [14]); 0.63 µM in assay [3] (setting [15]); 2.09 µM in [4] (setting [16]); 2.01 µM in assay [4] (setting [17]); 1 to 2 µM on V. campbellii LuxR [5] (setting [18]). Moreover, in the assay on Vibrio strains, the “IC50 values lower than Qstatin” value is given as ~10 fold. The luxC transcripts entry on V. campbellii LuxR [6] is “significantly decreased”. Moreover, the 05222 transcripts result at V. campbellii LuxR [6] is given as “significantly increased”. Besides, at V. campbellii LuxR [6], the LuxR protein level entry is recorded as “visible increase”. Besides, the “Inhibition of LuxR” value on V. campbellii LuxR [5] is given as “most potent”.
